Activity calls are given as the source filed them. The rule behind the calls is not given here.
Assays:
[1] = test system: C3H 10T1/2; test: Induction of osteogenesis in mouse C3H10T1/2 cells assessed as increase in alkaline phosphatase activity at 2 uM after 72 hrs by ALP assay; type: functional
[2] = test system: C3H 10T1/2; test: Induction of osteogenesis in mouse C3H10T1/2 cells assessed as increase in alkaline phosphatase activity after 72 hrs by ALP assay; type: functional, cell-based
[3] = test system: HepG2; test: Cytotoxicity against human HepG2 cells at 0.1 to 25 uM after 24 hrs by WST-1 assay; type: cell-based; details: hepg2, 24 h
[4] = test system: C2C12; test: Cytotoxicity against mouse C2C12 cells at 0.1 to 25 uM after 24 hrs by WST-1 assay; type: cell-based; details: c2c12, 24 h
[5] = test system: C3H 10T1/2; test: Induction of osteogenesis in mouse C3H10T1/2 cells using BCIP as substrate assessed as increase in alkaline phosphatase activity at 0.25 to 4 uM after 72 hrs by nitroblue tetrazolium chloride staining-based assay; type: functional, cell-based
[6] = test system: C3H 10T1/2; test: Induction of osteogenesis in mouse C3H10T1/2 cells assessed as calcium deposition at 4 uM by Alizarin Red S staining-based assay; type: functional, cell-based
[7] = Cytotoxicity against mouse 3T3L1 cells at 0.1 to 25 uM after 24 hrs by WST-1 assay; type: cell-based; details: 3t3-l1, 24 h
[8] = test system: L6; test: Cytotoxicity against rat L6 cells at 0.1 to 25 uM after 24 hrs by WST-1 assay; type: cell-based; details: l6, 24 h
[9] = test system: PC-3; test: Cytotoxicity against human PC3 cells at 0.1 to 25 uM after 24 hrs by WST-1 assay; type: cell-based; details: pc-3, 24 h
[10] = Cytotoxicity against human CaSki cells at 0.1 to 25 uM after 24 hrs by WST-1 assay; type: cell-based; details: ca-ski
[11] = test system: DU-145; test: Cytotoxicity against human DU145 cells at 0.1 to 25 uM after 24 hrs by WST-1 assay; type: cell-based; details: du-145, 24 h
[12] = test system: HeLa; test: Cytotoxicity against human HeLa cells at 0.1 to 25 uM after 24 hrs by WST-1 assay; type: cell-based
[13] = test system: Mus musculus; test: Induction of osteogenesis in ovariectomized C57BL/6 mouse model assessed as increase in […] at 5 to 10 mg/kg/day, po administered 5 days per week for 4 weeks by dual-energy X-ray absorptiometry relative to vehicle-treated control; type: functional
[14] = test system: Mus musculus; test: Induction of osteogenesis in ovariectomized C57BL/6 mouse model assessed as increase in bone volume at 10 mg/kg/day, po administered 5 days per week for 4 weeks by micro-CT analysis relative to vehicle-treated control; type: functional, organism-based
[15] = test system: Mus musculus; test: Induction of osteogenesis in ovariectomized C57BL/6 mouse model assessed as increase in trabecular number at 10 mg/kg/day, po administered 5 days per week for 4 weeks by micro-CT analysis relative to vehicle-treated control; type: functional, organism-based; details: Trabecula
[16] = test system: Mus musculus; test: Induction of osteogenesis in ovariectomized C57BL/6 mouse model assessed as reduction in trabecular space at 10 mg/kg/day, po administered 5 days per week for 4 weeks by micro-CT analysis relative to vehicle-treated control; type: functional, organism-based; details: Trabecula
[17] = test system: C3H 10T1/2; test: Activation of proto-oncogene protein Wnt/beta-catenin signaling (unknown origin) transfected in mouse C3H10T1/2 cells assessed as increase in transcriptional activity at 2 uM after 48 hrs by TOPflash luciferase reporter gene assay; type: cell-based; details: Homo sapiens

COc1ccc2c(c1O)OC(C)(C)C=C2c1cccc([N+](=O)[O-])c1
fold change (FC) [1]: 1.5

O=[N+]([O-])c1cccc(C2=CC3(CCCC3)Oc3cc(O)ccc32)c1
fold change (FC) [1]: 0.6

Cc1n[nH]c(C)c1C1CC(C)(C)Oc2cc(O)ccc21 (stereo unspecified)
Activity [2]: inactive

CC1(C)CC(c2ccc([N+](=O)[O-])cc2)c2cc(-c3cccc(O)c3)ccc2O1 (stereo unspecified)
Activity [2]: inactive

CN(C)c1ccc(C2=CC(C)(C)Oc3cc(O)ccc32)cc1
fold change (FC) [1]: 0.7

CC1(C)C=C(c2ccc(N)cc2)c2ccc(O)cc2O1
fold change (FC) [1]: 3.9

CC(=O)c1cccc(C2=CC(C)(C)Oc3cc(O)ccc32)c1
fold change (FC) [1]: 1.9

CC1(C)C=C(c2ccccc2[N+](=O)[O-])c2ccc(O)cc2O1
fold change (FC) [1]: 1.2

CC1(C)C=C(c2cc(Cl)cc(Cl)c2)c2ccc(O)cc2O1
fold change (FC) [1]: 1.5

CN(C)c1cccc(C2=CC(C)(C)Oc3cc(O)ccc32)c1
fold change (FC) [1]: 1.6

CC1(C)CC(c2cccnc2)c2ccc(O)cc2O1 (stereo unspecified)
Activity [2]: inactive

CC1(C)C=C(c2cccc(O)c2)c2ccc(O)cc2O1
fold change (FC) [1]: 1.4

CC1(C)CC(c2cccs2)c2ccc(O)cc2O1 (stereo unspecified)
Activity [2]: inactive

CC1(C)CC(c2ccc([N+](=O)[O-])cc2)c2cc(Cl)cc(-c3cccc(O)c3)c2O1 (stereo unspecified)
Activity [2]: inactive

CCOC(=O)CCC1(C)C=C(c2cccc([N+](=O)[O-])c2)c2ccc(O)cc2O1 (stereo unspecified)
fold change (FC) [1]: 1.4

CC1(C)C=C(c2cccc(N)c2)c2ccc(O)cc2O1
fold change (FC) [1]: 2.5

CC1(C)C=C(c2cccc([N+](=O)[O-])c2)c2ccc(O)cc2O1
Activity [3]: Non-toxic | Activity [4]: Non-toxic | fold change (FC) [1]: 6.8 | Activity [2]: Dose-dependent effect | Activity [5]: Dose-dependent effect | Activity [6]: Active | Activity [7]: Non-toxic | Activity [8]: Non-toxic | Activity [9]: Non-toxic | Activity [10]: Non-toxic | Activity [11]: Non-toxic | Activity [12]: Non-toxic | Activity [13]: 37% | Activity [14]: Active | Activity [15]: Active | Activity [16]: Active | Activity [17]: Active

CC1(C)CC(c2ccoc2)c2ccc(O)cc2O1 (stereo unspecified)
Activity [2]: inactive

CC1(C)C=C(c2ccc([N+](=O)[O-])cc2)c2ccc(O)cc2O1
fold change (FC) [1]: 3.1

CC1(C)CC(c2ccccc2)c2ccc(O)cc2O1 (stereo unspecified)
Activity [2]: inactive

Source: ChEMBL document CHEMBL3217458, “Discovery of a novel benzopyranyl compound as a potent in vitro and in vivo osteogenic agent” (Medchemcomm, 2011)
